Laboratory results: PMC3292421 (International Journal of Nanomedicine, 2012)
Where two headings read alike, the source gives them in different places.

Legend:
[1] = 25°C
[2] = long-term animal studies; cited from earlier work
[3] = tested on: P-glycoprotein; details: cited from earlier work

Solubility ([1]; in Cremophor EL (surfactant)): 1.305 µmol/g
Solubility ([1]; in Cremophor RH40 (surfactant)): 0.631 µmol/g
Solubility ([1]; in GTCC (caprylic/capric triglyceride, oil)): 0.154 µmol/g
Solubility ([1]; in IPM (isopropyl myristate, oil)): 0.087 µmol/g
Solubility ([1]; in Labrafac Lipophile WL1349 (oil)): 0.159 µmol/g
Solubility ([1]; in Labrafil M2125CS (oil)): 0.338 µmol/g
Solubility ([1]; in Maisine 35-1 (oil)): 0.755 µmol/g
Solubility ([1]; in Olive oil (oil)): 0.145 µmol/g
Solubility ([1]; in PEG 200 (cosurfactant)): 0.093 µmol/g
Solubility ([1]; in PEG 400 (cosurfactant)): 0.143 µmol/g
Solubility ([1]; in Transcutol P (cosurfactant)): 1.356 µmol/g
Structure (SMILES): O=C1Nc2ccccc2/C1=C1/Nc2ccccc2C1=O [indirubin]
Bone marrow toxicity and hematotoxicity [2]: neither bone marrow toxicity nor hematotoxicity
Influence of P-glycoprotein on transport through the rat intestine membrane [3]: not influenced
